Measured values from patent US7053107B2, “Indazole compounds and pharmaceutical compositions for inhibiting protein kinases, and methods for their use” (Agouron Pharmaceuticals, Inc., priority 2002, dated 2006).

Key:
[1] = target: T1, unphosphorylated VEGF-R2Δ50 (Homo sapiens, UniProt P35968, DEL940-989/E990V); experiment: VEGF-R2 coupled spectrophotometric assay, unphosphorylated construct (FLVK); format: biochemical; settings: % inhibition at 50 nM compound; read-out: FLVK Ki % inh @ 50 nM
T1 construct: VEGF-R2Δ50 contains residues 806–939 and 990–1171; made in house; host or cells: baculovirus/insect cell system
T1 sequence (P35968 with tags, fused parts or gaps DEL940-989/E990V limits assumed): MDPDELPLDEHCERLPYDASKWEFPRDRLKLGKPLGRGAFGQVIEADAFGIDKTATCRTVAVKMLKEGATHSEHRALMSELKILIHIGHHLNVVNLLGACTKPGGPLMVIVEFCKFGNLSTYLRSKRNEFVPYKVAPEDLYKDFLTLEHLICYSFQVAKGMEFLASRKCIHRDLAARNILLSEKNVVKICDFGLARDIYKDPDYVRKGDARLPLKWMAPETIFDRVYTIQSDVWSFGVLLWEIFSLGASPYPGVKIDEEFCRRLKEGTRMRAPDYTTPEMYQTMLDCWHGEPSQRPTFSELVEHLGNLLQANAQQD
Outline: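 Human VEGF-R2Δ50 kinase (residues 806–939/990–1171, baculovirus-expressed; autophosphorylated form pre-treated with 3 mM ATP, 4° C, 2 h), 5–40 nM, with poly(E4Y1) in 200 mM HEPES pH 7.5; ADP coupled via PK/LDH to NADH oxidation at 340 nm. Phosphorylated: 1 mM ATP, 5.1 mM poly(E4Y1), 25 mM MgCl2; unphosphorylated: 3 mM ATP, 20 mM poly(E4Y1), 60 mM MgCl2, 2 mM MnCl2. Ki from activity at varying compound levels.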

KDR = target: T2, KDR (Homo sapiens, UniProt P35968); experiment: KDR (VEGFR2) Phosphorylation in PAE-KDR Cells Assay; format: cell-based; settings: PAE cells overexpressing human KDR
T2 construct: expressed in transfected cells; host or cells: porcine aorta endothelial (PAE) cells
T2 sequence (P35968 20-1356): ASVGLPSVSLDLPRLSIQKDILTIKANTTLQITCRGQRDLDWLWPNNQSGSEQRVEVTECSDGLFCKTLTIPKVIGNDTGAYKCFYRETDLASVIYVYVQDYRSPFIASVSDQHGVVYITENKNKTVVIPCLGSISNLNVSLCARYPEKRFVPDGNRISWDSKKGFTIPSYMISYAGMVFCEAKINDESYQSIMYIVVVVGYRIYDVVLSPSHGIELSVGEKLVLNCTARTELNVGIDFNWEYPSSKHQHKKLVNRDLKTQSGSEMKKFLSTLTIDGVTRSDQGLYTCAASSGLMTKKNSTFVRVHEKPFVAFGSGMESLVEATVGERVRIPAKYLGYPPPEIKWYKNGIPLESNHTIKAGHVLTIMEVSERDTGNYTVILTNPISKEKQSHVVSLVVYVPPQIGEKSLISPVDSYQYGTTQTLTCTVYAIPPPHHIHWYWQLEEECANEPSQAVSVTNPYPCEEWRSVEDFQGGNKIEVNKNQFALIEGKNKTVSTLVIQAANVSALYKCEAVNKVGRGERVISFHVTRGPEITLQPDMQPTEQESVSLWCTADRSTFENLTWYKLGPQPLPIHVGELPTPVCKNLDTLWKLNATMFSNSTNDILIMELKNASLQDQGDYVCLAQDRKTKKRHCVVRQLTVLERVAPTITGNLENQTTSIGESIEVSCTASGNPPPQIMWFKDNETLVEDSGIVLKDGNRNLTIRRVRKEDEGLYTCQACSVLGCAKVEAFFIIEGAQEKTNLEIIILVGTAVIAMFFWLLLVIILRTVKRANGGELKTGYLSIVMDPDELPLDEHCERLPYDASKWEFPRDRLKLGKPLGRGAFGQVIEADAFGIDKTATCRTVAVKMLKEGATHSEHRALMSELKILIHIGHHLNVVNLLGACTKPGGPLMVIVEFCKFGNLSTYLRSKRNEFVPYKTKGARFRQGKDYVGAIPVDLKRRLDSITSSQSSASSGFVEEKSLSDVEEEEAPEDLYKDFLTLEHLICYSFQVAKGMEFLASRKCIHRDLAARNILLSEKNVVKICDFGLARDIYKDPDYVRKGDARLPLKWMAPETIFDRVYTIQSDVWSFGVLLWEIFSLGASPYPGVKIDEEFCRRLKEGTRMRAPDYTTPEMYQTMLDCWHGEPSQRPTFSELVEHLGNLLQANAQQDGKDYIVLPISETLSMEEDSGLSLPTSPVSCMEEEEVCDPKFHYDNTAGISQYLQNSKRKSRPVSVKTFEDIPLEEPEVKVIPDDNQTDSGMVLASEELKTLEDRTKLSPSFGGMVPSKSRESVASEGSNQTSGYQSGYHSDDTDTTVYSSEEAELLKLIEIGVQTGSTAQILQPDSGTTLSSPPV
Procedure: This assay determines the ability of a test compound to inhibit the autophosphorylation of KDR in porcine aorta endothelial (PAE)-KDR cells. PAE cells that overexpress human KDR were used in this assay. The cells were cultured in Ham's F12 media supplemented with 10% fetal bovine serum (FBS) and 400 μg/mL G418. Thirty thousands cells were seeded into each well of a 96-well plate in 75 μL of growth media and allowed to attach for 6 hours at 37° C. Cells were then exposed to the starvation media (Ham's F12 media supplemented with 0.1% FBS) for 16 hours. After the starvation period was over, 10 μL of test agent in 5% DMSO in starvation media were added to the test wells and 10 μL of the vehicle (5% DMSO in starvation media) were added into the control wells. The final DMSO concentration in each well was 0.5%. Plates were incubated at […] for 1 hour and the cells were then stimulated with 500 ng/ml VEGF (commercially available from R & D System) in the presence of 2 mM Na3VO4 for 8 minutes. The cells were washed once with 1 mm Na3VO4 in HBSS and lysed by adding 50 μL per well of lysis buffer. […] Phosphorylation status was assessed by spectrophotometer reading at 450 nm. IC50 values were calculated by curve fitting using a four-parameter analysis.

FGF-R1 = target: T3, FGF-R1 (Homo sapiens, UniProt P11362, C488A/C584S/L457V); experiment: Fibroblast Growth Factor (FGF-R) spectrophotometric assay; format: biochemical; settings: 1 μM compound; read-out: FGF-P % inhibit @1 μM
T3 construct: starting from the endogenous methionine residue 456 to glutamate 766; made in house; host or cells: baculovirus vector expression system
T3 sequence (P11362 456-766 L457V/C488A/C584S): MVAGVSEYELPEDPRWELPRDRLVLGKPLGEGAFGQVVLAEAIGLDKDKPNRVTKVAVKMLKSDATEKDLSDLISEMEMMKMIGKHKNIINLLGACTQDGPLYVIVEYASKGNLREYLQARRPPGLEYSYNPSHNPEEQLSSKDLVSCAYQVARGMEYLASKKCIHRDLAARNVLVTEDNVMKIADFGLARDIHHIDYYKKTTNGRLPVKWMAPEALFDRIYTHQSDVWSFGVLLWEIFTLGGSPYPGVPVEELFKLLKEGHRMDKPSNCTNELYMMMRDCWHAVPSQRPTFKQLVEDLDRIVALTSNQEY
Outline: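 Baculovirus-expressed human FGF-R1 kinase domain (Met456–Glu766; L457V/C488A/C584S), 50 nM, with 2 mM ATP and 15 mM poly(E4Y1) in HEPES pH 7.5. ADP formation coupled via PK/LDH to NADH oxidation, read as A340 decrease. Ki from activity across varying compound concentrations.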

[2] = target: T4, phosphorylated VEGF-R2Δ50 (Homo sapiens, UniProt P35968, DEL940-989/E990V); experiment: VEGF-R2 coupled spectrophotometric (FLVK-P) assay, phosphorylated construct; format: biochemical; settings: Ki (nM)
T4 construct: VEGF-R2Δ50 contains residues 806–939 and 990–1171; made in house; host or cells: baculovirus/insect cell system
T4 sequence (P35968 with tags, fused parts or gaps DEL940-989/E990V limits assumed): as the sequence (P35968 with tags, fused parts or gaps DEL940-989/E990V limits assumed) above
Description: This construct determines the ability of a test compound to inhibit tyrosine kinase activity. A construct (VEGF-R2Δ50) of the cytosolic domain of human vascular endothelial growth factor receptor 2 (VEGF-R2) lacking the 50 central residues of the 68 residues of the kinase insert domain was expressed in a baculovirus/insect cell system. Of the 1356 residues of full-length VEGF-R2, VEGF-R2Δ50 contains residues 806–939 and 990–1171, and also one point mutation (E99OV) within the kinase insert domain relative to wild-type VEGF-R2. Autophosphorylation of the purified construct was performed by incubation of the enzyme at a concentration of 4 μM in the presence of 3 mM ATP and 40 mM MgCl2 in 100 mM HEPES, pH 7.5, containing 5% glycerol and 5 mM DTT, at 4° C. for 2 h. […] See Parast et al., Biochemistry, 37,16788–16801 (1998).
The production of ADP from ATP that accompanies phosphoryl transfer was coupled to oxidation of NADH using phosphoenolpyruvate (PEP) and a system having pyruvate kinase (PK) and lactic dehydrogenase (LDH). The oxidation of NADH was monitored by following the decrease of absorbance at 340 nm (e340=6.22 cm^−1 mM^−1) using a Beckman DU 650 spectrophotometer. […] Ki values were determined by measuring enzyme activity in the presence of varying concentrations of test compounds. The data were analyzed using Enzyme Kinetic and Kaleidagraph software.

HUVEC = experiment: bFGF Huvec; format: cell-based; settings: Homo sapiens
[3] = tested on: human umbilical vein endothelial cells (HUVEC); experiment: HUVEC Proliferation Assay (VEGF-stimulated); format: cell-based
Outline: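 Serum-starved HUVEC (passage 3–4, F12K + 1% FBS, 24 h) pretreated 1 h with compound (final DMSO 0.1%), then stimulated with 6 ng/mL VEGF for 72 h. Proliferation read by 4 h MTT reduction, absorbance 595. IC50 from seven-point 0.5-log curves in triplicate; screening % inhibition normalised to VEGF-only and starvation controls.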

| inhibition at 0.05 µM [1] [%] | IC50 (KDR) [nM] | inhibition at 1 µM (FGF-R1) [%] | Ki [2] [nM] | SMILES | IC50 (HUVEC) [nM] | IC50 [3] [nM] |
| --- | --- | --- | --- | --- | --- | --- |
| 90 | 0.76 | 45 | – | Cc1ccnc(/C=C/c2n[nH]c3cc(Nc4ccccc4C(=O)NCc4ccccn4)ccc23)c1 [Example 37, 2-{3-[2-(4-Methyl-pyridin-2-yl)-vinyl]-1H-indazol6-ylamino}-N-pyridin-2-ylmethyl-benzamide] | – | – |
| 95 | 1.62 | 69 | 0.3 | Cc1ccnc(/C=C/c2n[nH]c3cc(Nc4ccccc4C(=O)NCC#CC4CC4)ccc23)c1 [Example 36, N-(3Cycloprop-2-ynyl)-2-{3-[(E)-2-(4-methyl-pyridin-2-yl)-vinyl]-1H-indazol-6-ylamino}-benzamide] | 935 | 1.67 |
